{
  "source": "patent US20080234345A1",
  "about": "“METHOD FOR REDUCING OR ALLEVIATING INFLAMMATION IN THE DIGESTIVE TRACT” (Gene Logic Inc., priority 2006, published 2008)",
  "key": {"[1]": {"tested_on": "NF-κB dependent transcription", "experiment": "In vivo basal NF-κB dependent transcription in NF-κB::Luc reporter mice, abdominal imaging", "conditions": "4 hours", "text": "GL1001 was further tested for in vivo anti-inflammatory activity by examining its effects on basal levels of NF-κB dependent transcription in mice engineered in the germline with a construct containing an NF-κB enhancer linked to a luciferase gene (i.e., NF-κB::Luc mice), such that this NF-κB reporter construct is present in all cells of the mice.\nMore particularly, transgenic NF-κB::Luc mice were generated using three NF-κB response elements from the Igκ light chain promoter fused to a firefly luciferase gene as described by Carlsen et al. (2002) J. Immunol. 168:1441-1446. Pronuclear microinjection of purified construct DNA was used to generate transgenic founders in the C57BL/6 XCBA/J background. Founders were subsequently back crossed to the C57BL/6 albino background. […] Signal data were also quantitated and archived using the Living Image® software. Photons of light were quantitated using an oval region of interest (ROI) of varying sizes depending on the procedure, as described further below.\nTo test for in vivo effects of GL1001 on basal levels of NF-κB dependent transcription, male NF-κB::Luc mice were subjected to quantitative in vivo imaging of the abdominal area (using a fixed ROI of 2.76×3.7 cm) as described above, immediately before, and at 2, […]"}, "[2]": {"tested_on": "activator protein-1 (AP-1)", "experiment": "Basal in vivo reporter luciferase expression in AP-1::Luc mice", "conditions": "AP-1::Luc mice (data not shown)"}, "[3]": {"tested_on": "NF-κB dependent transcription", "experiment": "In vivo LPS induced NF-κB dependent transcription in NF-κB::Luc mice, abdominal imaging", "text": "More particularly, transgenic NF-κB::Luc mice were generated using three NF-κB response elements from the Igκ light chain promoter fused to a firefly luciferase gene as described by Carlsen et al. (2002) J. Immunol. 168:1441-1446. Pronuclear microinjection of purified construct DNA was used to generate transgenic founders in the C57BL/6 XCBA/J background. Founders were subsequently back crossed to the C57BL/6 albino background. All experimental protocols were approved by the Institutional Animal Care and Use Committee and conform to the ILAR guide for the care and used of laboratory animals. For in vivo imaging, NF-κB::Luc mice were injected intraperitoneally with luciferin (150 mg/kg) 10 minutes before imaging, anesthetized (using 1-3% isoflurane) and placed into a light-tight camera box. […] Signal data were also quantitated and archived using the Living Image® software. Photons of light were quantitated using an oval region of interest (ROI) of varying sizes depending on the procedure, as described further below.\nGL1001 was further tested for in vivo anti-inflammatory activity by examining its effects on bacterial LPS induced NF-κB dependent transcription, in NF-κB::Luc mice. […] Mice were subjected to quantitative abdominal imaging at 2, 4 and 6 h following LPS administration, as described above. […] Luciferase signal was quantitated from several regions of interest. […]"}, "[4]": {"tested_on": "NF-κB dependent transcription", "experiment": "LPS induced NF-κB dependent transcription in extracted organs of NF-κB::Luc mice (luciferase lysate assay)", "format": "in vivo", "conditions": "GL1001 30 mg/kg, LPS 0.5 mg/kg, vs LPS alone", "text": "For luciferase assays, organs were extracted and snap frozen in liquid nitrogen. AII tissue samples were placed in lysis buffer with inhibitors (Passive Lysis Buffer (Promega) and Complete Mini Protease Inhibitor Cocktail (Roche, Indianapolis, Ind.)), and were homogenized using a tissue homogenizer (Handishear, Hand-held homogenizer, VirTis, Gardiner, N.Y.). Tissue homogenates were centrifuged and clarified lysates were used for luminometer assays and western blots. For the luminometer assays, Luciferase Assay Substrate (Luciferase Assay System, Promega) was prepared as indicated by the manufacturer and placed in disposable cuvettes. […] Background luminescence readings were obtained and the background readings were subtracted from the luminescent data. Protein concentrations were determined using the BCA Protein Assay Kit (Pierce, Rockford, Ill.) following the manufacturer's protocols and analyzed using a VERSAmax tunable microplate reader and associated Softmax Pro version 3.1.2 software (Molecular Devices, Sunnyvale Calif.). The luminescence for each of the protein lysates was calculated as arbitrary units of light per microgram of protein. […]\nGL1001 was further tested for in vivo anti-inflammatory activity by examining its effects on bacterial LPS induced NF-κB dependent transcription, in NF-κB::Luc mice. […] Luciferase signal was quantitated from several regions of interest. […]"}, "[5]": {"tested_on": "DSS-induced colitis in Balb/c mice", "experiment": "DSS-induced histological effects in colon of Balb/c mice (Example 6)", "format": "in vivo", "experimental": "A study was designed with five groups of Balb/c mice: naïve control, DSS followed by vehicle, DSS followed by dexamethasone 3 mg/kg/day, DSS followed by GL1001 10 mg/kg/day, and DSS followed by GL1001 100 mg/kg/day. Administration of DSS was via drinking water (DSS 5% in water), from day 0 to day 7 of the study. […] Administration of vehicle, dexamethasone and GL1001 was subcutaneous, once daily, from day 7 until termination of the study (day 14).\nAt termination of the study, samples from proximal, transverse and distal portions of the colon of each animal were collected for histological analysis, which included: • (a) inflammation score (0-5), based on leukocyte infiltration in mucosa and submucosa, crypt abcess and edema; • (b) glandular score (0-5), based on crypt destruction (crypts function to produce mucin and generate epithelium); and • (c) erosion score (0-5), based on integrity of epithelium or degree of ulceration thereof. A total histopathological score was obtained by adding the scores from (a), (b) and (c) above."}, "[6]": {"conditions": "GL1001 100 mg/kg/day s.c. once daily"}},
  "data": [
    {"compound": "CC(C)C[C@H](N[C@@H](Cc1cncn1Cc1cc(Cl)cc(Cl)c1)C(=O)O)C(=O)O", "note": "[GL1001, (S,S)-2-[1-carboxy-2-[3-(3,5-dichlorobenzyl)-3H-imidazol-4-yl]-ethylamino]-4-methylpentanoic acid]", "values": [
      {"measurement": "inhibition of basal in vivo levels of NF-κB dependent transcription in abdominal ROI", "setting": "[1]; 300 mg/kg subcutaneous, p<0.01", "value": "over 40%"},
      {"measurement": "inhibition of basal in vivo levels of NF-κB dependent transcription in abdominal ROI", "setting": "[1]; both lower doses, subcutaneous", "value": "lesser but still significant extents"},
      {"measurement": "basal in vivo levels of reporter luciferase expression", "setting": "[2]", "value": "no significant effect"},
      {"measurement": "LPS induced NF-κB signaling response, abdominal region", "setting": "[3]; GL1001 30, 100, 300 mg/kg s.c. 1 hour before LPS i.v. (FIG. 4)", "value": "significantly reduced"},
      {"measurement": "LPS induced NF-κB signaling", "setting": "[3]; at 30 and 100 mg/kg, dose range 3-100 mg/kg (FIG. 5)", "value": "significantly reduced"},
      {"measurement": "LPS induced NF-κB signaling in pancreas and uterus, or any other organ analyzed", "setting": "[4]", "value": "no statistically significant decrease"},
      {"measurement": "reduction of LPS induced NF-κB-dependent transcription in stomachs", "setting": "[4]", "value": "about 37 fold"},
      {"measurement": "histological effect", "setting": "[5]; GL1001 10 mg/kg/day s.c.", "value": "No significant histological effect"},
      {"measurement": "micrograph of distal colon section (FIG. 14)", "setting": "[5]; GL1001 100 mg/kg s.c. once daily, one animal", "value": "Inflammation and gland loss are mild, and no erosion is seen"},
      {"measurement": "erosion score, distal colon", "setting": "[5]; [6]", "value": "significantly reduced"},
      {"measurement": "glandular score, distal colon", "setting": "[5]; [6]", "value": "significantly reduced"},
      {"measurement": "inflammation score, distal colon", "setting": "[5]; [6]", "value": "significantly reduced"},
      {"measurement": "total histopathological score, distal colon", "setting": "[5]; [6]", "value": "significantly reduced"},
      {"measurement": "disease activity (based on fecal samples)", "setting": "[5]; s.c. once daily day 7-14, dexamethasone 3 mg/kg/day, GL1001 10 and 100 mg/kg/day", "value": "No significant improvement"}
    ]}
  ]
}
